Where two headings read alike, the source gives them in different places.
Legend:
[1] = tested on: Anopheles gambiae (Giles) ss strain 16CSS female mosquitoes; test: warm body repellence assay (mosquito landings); assay type: in vivo; settings: for repellent activity in the warm body assay (in words): candidate compounds, initially 1.0-5.0 μg/cm^2 (about 5-31.5 nmole/cm^2); for median repellency (%) at 20 nmol/cm2: read-out: Median Repellency (%)
Description: To test the behavior of female mosquitoes to an essential oil containing OBP binding components, a previously described repellence assay [Kröber et al. (2010). An In Vitro Assay for Testing Mosquito Repellents Employing a Warm Body and Carbon Dioxide as a Behavioral Activator. Journal of the American Mosquito Control Association 26(4) 381-386] was conducted that measures the number of mosquito landings on a warm surface onto which an essential oil containing at least one candidate compound was applied.
To conduct a repellency assay, a selected essential oil or ethanol negative control was applied to a warm body at a dose of about 3.8 μg/cm^2 and allowed to dry for 40 seconds in order to allow evaporation of the solvent before introduction into the test cage with mosquitoes. As positive control for repellence, DEET dissolved in ethanol was applied to the warm body at the same dose. The treated warm body in conjunction with a pulse of carbon dioxide was introduced into the test cage containing fifty Anopheles gambiae (Giles) ss strain 16CSS female mosquitoes that were 4-11 days old and the number of mosquito landings on the warm body occurring within a 2-minute period was counted. Each candidate compound was tested in five different cages (i.e., 250 female mosquitoes) in a randomized design, and the ethanol control and up to four candidate compounds were tested in each cage. Raw data on numbers of landings by mosquitoes were analyzed using a linear mixed model accounting for treatment, experimental day, the individual cage, the number of females per cage and the level of the carbon dioxide pulse in ppm using R (R Development Core Team, 2010) and the packages LME4 (Bates and Maechler, Ime4: Linear mixed-effects models using {S4} classes.{R} package version 0.999375-32, 2009) and NLME (Pinheiro et al, nlme: Linear and Nonlinear Mixed Effects Models, 2010; the R Development Core Team, R: A Language and Environment for Statistical Computing, 2010). Repellent values were calculated from counted landings on treatments versus the overall landings on pooled controls.
To test the behavior of female mosquitoes to a candidate compound identified in Example 5, behavioral assays were made using the identified compounds. The repellent assay was performed as described in Example 3, except that candidate compounds were dissolved in ethanol and tested initially at doses between 1.0 and 5.0 μg/cm^2 (about 5-31.5 nmole/cm^2) and, whenever necessary, at lower and/or higher doses as well. Besides the compounds identified in Example 5, compounds related to these were also tested including ethyl-cinnamate and butyl-cinnamate (Table 4).
To test the behavior of female mosquitoes to various combinations of candidate compounds identified in Example 6, repellence assays were made as in Example 3. These repellent assays were made to compare the effectiveness of the strongest repellent compounds identified in Example 6, including, without limitation, carvacrol, ethyl cinnamate, butyl cinnamate, and cumin alcohol with that of DEET.
The doses tested were 2, 4, 6 10 and 20 nmol/cm^2 for the single compounds. The binary 50:50 mixtures were tested at 2, 6, 10 and 20 nmol/cm^2, with each compound making up half the amount tested, so that, for example, the 2 nmol/cm^2 concentration in column A+B represents 1 nmol/cm^2 of A and 1 nmol/cm^2 of B in a binary mixture. DEET was also tested at 25 nmol (top response) and carvacrol was tested at the additional dose of 2.5 nmol (second from left within its column). As an indication, DEET at 20 nmol/cm^2=3.8 μg/cm^2. Mosquitoes were activated using a puff of CO2 from a gas tank upon introduction of the warm body into the test cage containing 50±5 A. gambiae females and mosquito landings were counted for 2 minutes. Each treatment (dose) was tested using five test cages, i.e. on a total of 250 female A. gambiae. […]

[2] = tested on: female A. gambiae antennae; test: GC-coupled electroantennogram (GC-EAG) recording; set-up: species or system Anopheles gambiae; settings: compounds eluting from GC of essential oils
Excerpt: Electrophysiological recordings from whole mosquito antenna: Coupling EAG recordings from an A. gambiae antenna to the effluent of a high-resolution gas chromatographic (GC) column permitted the determination of the elution profiles of biologically active components of essential oils showing repellence. Recordings were made from to 4-9 day-old female mosquitoes. The head was excised at the occipital opening and placed on the reference glass electrode containing Hayes mosquito Ringer [Hayes (1953). Determination of a physiological saline for Aedes aegypti (L.). J Econ Entomol 46: 624-627] mounted in a humidified air-stream (90-98% RH; Guerin and Visser (1980). Electroantennogram Responses of the Carrot Fly, Psila rosae, to Volatile Plant Components. Physiological Entomology 5(2): 111-119] and its antenna exposed to compounds eluting from the GC column (Biessamann et al. (2010). The Anopheles gambiae odorant binding protein 1 (AgamOBP1) mediates indole recognition in the antennae of female mosquitoes. PLoS One 5(3): e9471]. The EAG response was recorded via a glass electrode filled with Kaissling sensillum lymph Ringer [Kaissling (1995). Single unit and electroantennogram recordings in insect olfactory organs. In Experimental Cell Biology of Taste and Olfaction. Current Techniques and Protocols, Spielman AlaB, J. G. (ed), 361-386. Boca Raton, Fla.: CRC Press] brought into contact with the terminal antennal segment whose tip was cut off. Only antennae showing an EAG response at least double the noise level to a 1 ml puff of air over 1 μg geranylacetone in a 5 ml stimulus syringe were used for recording EAG responses to the essential oils.
To conduct a GC-EAG analysis, about 2 μg of an essential oil was injected in 1-3 μL of dichloromethane (DCM) onto an apolar capillary column (95% dimethyl polysiloxan with 5% diphenyl polysiloxan, 15 m long, 0.25 mm i.d., 0.10 μm film thickness; BGB Analytik, Switzerland) installed in a 5300 Carlo Erba Instruments chromatograph. Hydrogen was used as carrier gas with the oven held at 40° C. for 3 minutes then heated up 25° C./min to 230° C. and held at the final temperature for 15 min. The column effluent was split (50:50) between the flame ionization detector (FID) of the chromatograph and the mosquito antennal preparation. The EAG signal was fed into an AC/DC amplifier (×100) via a high impedance preamplifier (×10), recorded on the hard disk of a PC via a 16-bit analogue-digital IDAC4 interface (Syntech, Netherlands) and monitored simultaneously with an oscilloscope (Tektronix 5103, USA). Kovats retention indices (KIs) were calculated for the EAG-active compounds present in the extracts and fractions. FIG. 1 illustrates the results obtained using the GC-EAG analysis. […]

[3] = tested on: sand fly Lutzomyia longipalpis; test: warm body repellence assay with sand flies; assay type: in vivo; settings: for Median of landings: 2 minutes, control 48
Description: To test the effects of repellent compounds or compositions disclosed herein on other blood-feeding arthropods, a warm body repellence assay (Krober et. al. (2010). An In Vitro Assay for Testing Mosquito Repellents Employing a Warm Body and Carbon Dioxide as a Behavioral Activator. Journal of the American Mosquito Control Association 26(4): 381-386] was conducted using the sand fly Lutzomyia longipalpis (Diptera: Psychodidae), the principal vector of Leishmania (or leismaniasis) in the Americas.
[…] Fifty L. longipalpis sandflies (male:female ratio 1:1) of 3-7 days old were tested during the scotophase under conditions described for A. gambiae in Example 6. The test cages were lined with filter paper. Reduction in the number of landings by L. longipalpis sand fly females on a warm body treated with different test products compared to the control with solvent (ethanol p.a.) alone was used to evaluate repellence. Tests were conducted in complete darkness using IR LEDs to illuminate the warm body. Landings counted during 2 minutes were normalized by experimental day, cage, and number of females by a mixed linear model before testing for differences.

[4] = Anopheles gambiae, 2 min, 20 nmole per cm^2

C=C(C)C1CC=C(C)C(=O)C1 (single isomer, unassigned; (+)) [(+) carvone, carvone]
repellent activity in the warm body assay (in words) [1]: only weak or no repellent activity at all

C=C(C)[C@H]1CC=C(C)CC1 [(+) limonene, limonene]
repellent activity in the warm body assay (in words) [1]: only weak or no repellent activity at all

C=C(C)[C@@H]1CC=C(C)C(=O)C1 [(−) carvone, carvone]
repellent activity in the warm body assay (in words) [1]: only weak or no repellent activity at all

CC(C)c1ccc(C=O)cc1 [cumin aldehyde]
median repellency (%) at 20 nmol/cm2 ([1]; Anopheles gambiae, 2 min): 13.5% | repellent activity in the warm body assay (in words) [1]: only weak or no repellent activity at all | EAG response of antenna [2]: capable of triggering EAG responses

CC(C)c1ccc(C(=O)O)cc1 [cuminic acid]
median repellency (%) at 20 nmol/cm2 [1, 4]: 74.2% | repellent activity in the warm body assay (in words) [1]: activity comparable to DEET | Median of landings ([3]; 20 nmol/cm^2): 16 | Median of landings ([3]; 200 nmol/cm^2): 13 | repellence of sand flies from the warm body (in words) ([3]; 20 and 200 nmol/cm^2): as effective as DEET at 20 nmol/cm^2 | EAG response of antenna [2]: capable of triggering EAG responses

C=CC(C)(O)CCC=C(C)C (centres unmarked) [linalool]
repellent activity in the warm body assay (in words) [1]: properties suggesting attractant activity | EAG response of antenna [2]: capable of triggering EAG responses

COC(=O)C=Cc1ccccc1 [methyl-trans-cinnamate, methyl 3-phenylprop-2-enoate]
median repellency (%) at 20 nmol/cm2 [1, 4]: 14% | repellent activity in the warm body assay (in words) [1]: only weak or no repellent activity at all | EAG response of antenna [2]: capable of triggering EAG responses

Cc1ccc(C(C)C)cc1 [p-cymene]
repellent activity in the warm body assay (in words) [1]: properties suggesting attractant activity | EAG response of antenna [2]: capable of triggering EAG responses

CC1=C(C=O)C(C)(C)CC=C1 [safranal]
repellent activity in the warm body assay (in words) [1]: only weak or no repellent activity at all | EAG response of antenna [2]: capable of triggering EAG responses

Cc1ccc(C(C)C)c(O)c1 [thymol, 2-Isopropyl-5-methylphenol]
median repellency (%) at 31.5 nmol/cm2 ([1]; Anopheles gambiae, 2 min, 31.5 nmole per cm^2): 89.7% | repellent activity in the warm body assay (in words) [1]: activity comparable to DEET

CC1=CCC2CC1C2(C)C (stereo not drawn) [α-pinene]
repellent activity in the warm body assay (in words) [1]: only weak or no repellent activity at all | EAG response of antenna [2]: capable of triggering EAG responses

C=C1CC/C=C(\C)CC[C@@H]2[C@@H]1CC2(C)C [β-caryophyllene]
repellent activity in the warm body assay (in words) [1]: only weak or no repellent activity at all | EAG response of antenna [2]: capable of triggering EAG responses

C=C1CCC2CC1C2(C)C (stereo not drawn) [β-pinene]
repellent activity in the warm body assay (in words) [1]: only weak or no repellent activity at all | EAG response of antenna [2]: capable of triggering EAG responses

CC1=CCC(C(C)C)=CC1 [γ-terpinene]
repellent activity in the warm body assay (in words) [1]: only weak or no repellent activity at all

CC(C)=C1CCC(C)(O)CC1 (centres unmarked) [γ-terpineol]
EAG response of antenna [2]: capable of triggering EAG responses

limonene [(−) limonene]
repellent activity in the warm body assay (in words) [1]: only weak or no repellent activity at all

— patent publication US10390536B2, “Methods, compounds and compositions for repelling insects and/or arachnids” (National Center for Scientific Research “Demokritos”, priority 2013, dated 2019)
